From publication PMC6158578, “Optimization and Lead Selection of Benzothiazole Amide Analogs Toward a Novel Antimycobacterial Agent” (Frontiers in Microbiology, 2018)
Values after ≈ are worked out from the molar mass of the structure shown. Where two headings read alike, the source gives them in different places.

Key:
[1] = test system: M. fortuitum 41; assay: MIC, broth microdilution with resazurin (MHB, 3 days); format: cell-based; details: Mycolicibacterium fortuitum, 41
[2] = 50% complement-inactivated human serum
[3] = test system: P. aeruginosa ATCC 35151; assay: MIC, spectrum of activity; format: cell-based; details: Pseudomonas aeruginosa, ATCC35151
[4] = test system: C. albicans ATCC 10231; assay: MIC, spectrum of activity; format: cell-based; details: Candida albicans, ATCC10231
[5] = test system: M. abscessus 1; assay: MIC in MHB versus 7H9+OADC; format: cell-based
[6] = test system: M. tuberculosis H37Rv mc^2 6206; assay: microbe, parasite or virus in culture; format: cell-based; details: Mycobacterium tuberculosis, 168 h
[7] = test system: M. abscessus (n = 20) clinical isolates; assay: MIC against rapid-growing NTM clinical isolates; format: cell-based
[8] = test system: M. fortuitum (n = 11) clinical isolates; assay: MIC against rapid-growing NTM clinical isolates; format: cell-based
[9] = test system: M. abscessus 79; assay: MIC in MHB versus 7H9+OADC; format: cell-based
[10] = test system: M. abscessus ATCC 19977; assay: MIC, broth microdilution with resazurin (MHB, 3 days); format: cell-based; details: Mycobacteroides abscessus, ATCC19977
[11] = test system: M. avium 101; assay: MIC, Middlebrook medium (7H9 + OADC, 7 days); format: cell-based; details: Mycobacterium avium, 101, 168 h
[12] = test system: M. chimaera 1502055; assay: MIC, Middlebrook medium (7H9 + OADC, 7 days); format: cell-based; details: 1502055, 168 h
[13] = test system: S. aureus ATCC 29213; assay: MIC, spectrum of activity; format: cell-based; details: Staphylococcus aureus, ATCC29213
[14] = test system: M. abscessus 21; assay: MIC in MHB versus 7H9+OADC; format: cell-based
[15] = test system: M. chelonae 93; assay: MIC, broth microdilution with resazurin (MHB, 3 days); format: cell-based; details: Mycobacteroides chelonae, 93
[16] = test system: CYP3A; assay: CYP inhibition in human liver microsomes; format: in vitro ADME
Procedure: (§1) ADMET assays were performed through NIAID Preclinical Services and Eurofins. Potential for cytotoxicity was monitored in HepG2 cells after 72 h growth in the presence of test compounds, either prepared as 10-point 3-fold serial dilutions or at a fixed 10 μM concentration. Cell viability was measured using the CellTiter-Glo® Luminescent Cell Viability Assay (Promega) or via fluorescent image analysis. Cytotoxicity was expressed as IC50 or as percent reduction of viable cells relative to a reference compound. Metabolic stability of compounds was evaluated via incubation with human liver microsomes at 37°C and quantitative analysis of parent compound by LC-MS/MS in samples removed at 0, 5, 15, 30, and 45 min (Obach, [1999]). For cytochrome P450 (CYP) inhibition assays, compounds were prepared as a 7-point dilution series and incubated with human liver microsomes in buffer containing 2 mM NADPH and probe substrate. […] Thermodynamic solubility of compounds in aqueous media was determined by incubation in 50 mM potassium phosphate buffer (pH 7.4) for 24 h, followed by HPLC-UV detection of compound in the filtrate (Analiza, Cleveland, OH, United States).

[17] = molecular target: T1, CYP2B6 (Homo sapiens, UniProt P20813); assay: CYP inhibition in human liver microsomes; format: in vitro ADME
T1 construct: incubated with human liver microsomes in buffer containing 2 mM NADPH and probe substrate; from tissue; host or cells: human liver microsomes
T1 sequence (P20813 1-491): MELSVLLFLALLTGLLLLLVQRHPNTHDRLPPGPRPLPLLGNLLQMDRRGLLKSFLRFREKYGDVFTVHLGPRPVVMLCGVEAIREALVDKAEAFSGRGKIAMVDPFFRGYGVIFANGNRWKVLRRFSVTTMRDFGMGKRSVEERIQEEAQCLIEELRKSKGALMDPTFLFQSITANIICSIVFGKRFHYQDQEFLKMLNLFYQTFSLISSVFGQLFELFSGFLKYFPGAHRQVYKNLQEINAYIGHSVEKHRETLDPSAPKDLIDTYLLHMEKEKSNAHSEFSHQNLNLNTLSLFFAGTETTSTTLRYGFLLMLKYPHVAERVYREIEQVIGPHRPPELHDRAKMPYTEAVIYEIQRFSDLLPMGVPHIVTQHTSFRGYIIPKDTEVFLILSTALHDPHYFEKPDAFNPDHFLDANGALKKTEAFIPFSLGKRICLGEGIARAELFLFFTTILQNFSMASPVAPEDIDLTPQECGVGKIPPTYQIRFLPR
Procedure: as §1

[18] = test system: E. faecalis ATCC 29212; assay: MIC, spectrum of activity; format: cell-based; details: Enterococcus faecalis, ATCC29212
[19] = test system: M. peregrinum ATCC 700686; assay: MIC, broth microdilution with resazurin (MHB, 3 days); format: cell-based; details: Mycolicibacterium peregrinum, ATCC700686
[20] = physchem; format: physicochemical; details: pH 7.4, aqueous buffer, thermodynamic from solid
Procedure: as §1

[21] = test system: S. pyogenes ATCC 19615; assay: MIC, spectrum of activity; format: cell-based; details: Streptococcus pyogenes, ATCC19615
[22] = test system: E. coli tolC CGSC 5633 (efflux mutant strain); assay: microbe, parasite or virus in culture; format: cell-based; details: Escherichia coli
[23] = test system: M. chelonae (n = 11) clinical isolates; assay: MIC against rapid-growing NTM clinical isolates; format: cell-based
[24] = test system: S. pneumoniae ATCC 49619; assay: MIC, spectrum of activity; format: cell-based; details: Streptococcus pneumoniae, ATCC49619
[25] = test system: E. coli ATCC 25922 + PMBN (permeabilized); assay: MIC, spectrum of activity; format: cell-based; details: Escherichia coli, ATCC25922
[26] = test system: M. abscessus massiliense 119; assay: MIC, broth microdilution with resazurin (MHB, 3 days); format: cell-based; details: Mycobacteroides abscessus
[27] = test system: M. intracellulare 1956; assay: MIC, Middlebrook medium (7H9 + OADC, 7 days); format: cell-based; details: Mycobacterium intracellulare, 1956, 168 h
[28] = test system: Other NTM (n = 12); assay: MIC against rapid-growing NTM clinical isolates; format: cell-based
[29] = HepG2 cytotoxicity, 72 h; format: cell-based; details: human, HepG2 cells, HepG2, 72 h, read-out: HepG2 cytotox., IC50
Procedure: as §1

With `CC12CCCC(C(=O)Nc3nc4ccc(OC(F)(F)F)cc4s3)(CCC1)C2` [CRS400359] as the compound, how does the MIC [1] read?
The MIC was 0.12 µg/mL (≈ 0.301 µM).

What about the “Protein (serum) binding” value [2] of the same compound?
Its value is >95%.

What about the MIC [3] of the same compound?
The MIC was 64 µg/mL (≈ 161 µM).

What about the MIC [4] of the same compound?
Its MIC is 64 µg/mL (≈ 161 µM).

And the MIC ([5]; M. abscessus 1, 7H9 + OADC (5 mg/mL albumin))?
Its MIC is 1 µg/mL.

And the MIC ([5]; M. abscessus 1, MHB)?
Its MIC is 0.06 µg/mL (≈ 0.151 µM).

And the MIC [6]?
The MIC was 0.5 µg/mL (≈ 1.25 µM).

And the MIC range ([7]; M. abscessus (n = 20))?
The MIC range was 0.06 to 2 µg/mL.

What about the MIC90 ([7]; Mycobacteroides abscessus) of the same compound?
Its MIC90 is 0.25 µg/mL (≈ 0.627 µM).

What about the MIC range ([8]; M. fortuitum (n = 11)) of the same compound?
The MIC range was 0.06 to 1 µg/mL.

And the MIC90 ([8]; Mycolicibacterium fortuitum)?
Its MIC90 is 1 µg/mL (≈ 2.51 µM).

And the MIC ([9]; M. abscessus 79, 7H9 + OADC (5 mg/mL albumin))?
Its MIC is 0.25 µg/mL.

What about the MIC ([9]; M. abscessus 79, MHB) of the same compound?
The MIC was 0.06 µg/mL (≈ 0.151 µM).

What about the MIC [10] of the same compound?
The MIC was ≤ 0.06 µg/mL.

And the MIC [11]?
The MIC was 2 µg/mL.

And the MIC [12]?
Its MIC is 2 µg/mL.

And the MIC [13]?
The MIC was > 64 µg/mL.

What about the MIC ([14]; M. abscessus 21, 7H9 + OADC (5 mg/mL albumin)) of the same compound?
Its MIC is 2 µg/mL.

What about the MIC ([14]; M. abscessus 21, MHB) of the same compound?
Its MIC is 0.06 µg/mL (≈ 0.151 µM).

And the MIC [15]?
The MIC was 0.12 µg/mL (≈ 0.301 µM).

What about the inhibition at 10 µM [16] of the same compound?
The inhibition at 10 µM was 0%.

And the inhibition at 10 µM [17]?
Its inhibition at 10 µM is 30%.

What about the MIC [18] of the same compound?
Its MIC is > 64 µg/mL.

And the MIC [19]?
The MIC was 0.12 µg/mL (≈ 0.301 µM).

What about the solubility at 24 h [20] of the same compound?
Its solubility at 24 h is < 3 µM.

And the MIC [21]?
Its MIC is > 64 µg/mL.

What about the MIC [22] of the same compound?
Its MIC is > 64 µg/mL.

What about the MIC range ([23]; M. chelonae (n = 11)) of the same compound?
The MIC range was 0.25 to 0.5 µg/mL.

What about the MIC90 ([23]; Mycobacteroides chelonae) of the same compound?
The MIC90 was 0.25 µg/mL (≈ 0.627 µM).

And the MIC [24]?
The MIC was 32 µg/mL (≈ 80.3 µM).

What about the MIC [25] of the same compound?
Its MIC is > 64 µg/mL.

What about the MIC [26] of the same compound?
The MIC was ≤ 0.06 µg/mL.

And the MIC [27]?
The MIC was 2 µg/mL.

And the MIC90 [28]?
Its MIC90 is 0.5 µg/mL (≈ 1.25 µM).

And the MIC range ([28]; Other NTM (n = 12))?
The MIC range was 0.12 to 2 µg/mL.

What about the IC50 at 72 h [29] of the same compound?
The IC50 at 72 h was 10 µM.

What about the IC50 at 72 h ([29]; value in brackets) of the same compound?
Its IC50 at 72 h is 4 µg/mL.
